Where two headings read alike, the source gives them in different places.
Assays:
[1] = Rat pharmacokinetics after IA injection (plasma, knee joint); assay type: in vivo, Sprague Dawley rats; details: for concentration at 30 day / concentration at 90 day / concentration at 180 day: Sprague Dawley; for concentration at 30 day / concentration at 90 day / concentration at 180 day / Formula (I) concentration, Bone / Formula (I) concentration, Cartilage / Formula (I) concentration, Plasma: rats, single IA; for Formula (I) concentration, Plasma: QL = 5 ng/mL
Description: In rats and dogs, the pharmacokinetic profile, safety profile, tissue distribution and cartilage regeneration following a single intra-articular (IA) injection of the compound of Formula (I) in the plasma and the knee joint (cartilage and bone) was determined. The compound of Formula (I) (Form 1) was formulated as a suspension composition in 0.5% CMC/0.05% Polysorbate 80 in PBS.
The pharmacokinetics of the compound of Formula (I) in rats was studied. Three Sprague Dawley rats were each injected with a single intra-articular (IA) injection (one IA injection per knee) of a suspension composition of the compound of Formula (I) (Form 1) at 0.3, 1, 3 and 9 μg/knee. Plasma was collected beginning at 15 minutes post-dose on Day 1 and the knee joint was collected at Days 30, 90, and 180 post-IA administration. The bone and cartilage tissues from the knee joint were segregated and concentrations analyzed. The compound was retained in the knee joint above the target concentration level (˜30 nM, the intended clinical therapeutic dose) for greater than 180 days and was undetectable in the plasma at all time points.

[2] = tested on: chondrogenic and osteogenic gene expression in human MSCs; test: Chondrogenic and osteogenic gene expression, qRT-PCR in human MSCs; assay type: cell-based; details: 10 nM and 30 nM, 21 days
Description: Human MSCs were plated in 10 cm dishes in chondrogenic induction medium (Lonza; DMEM, dexamethasone, ascorbate, insulin-transferrin-selenium [ITS supplement], gentamycin-amphotericin [GA-1000], sodium pyruvate, proline and L-glutamine) and treated with the compound of Formula (I) in DMSO (10 nM and 30 nM) or TGF-β3 (20 μg/mL) as a positive control. Cells were incubated at 37° C., 5% CO2 for 21 days, with media changes every 5 days. Cells were pelleted and washed, and total RNA was isolated and purified using RNeasy Plus Mini Kit (Qiagen). cDNA was synthesized from 1 μg of total RNA using QuantiTect Reverse Transcription kit (Qiagen). qRT-PCR was performed with QuantiTect SYBR Green PCR Kit (Qiagen) and gene-specific primers, using CFX384 thermal cycler (Biorad). Transcripts were quantitated by comparative Ct method and normalized to endogenous controls, β-actin and GAPDH. Fold changes were normalized to DMSO treated cells.

Human MSCs = test: Chondrogenesis induction, Rhodamine B and Nile Red staining; assay type: cell-based
Description: Human MSCs were plated in 96-well plates in chondrogenic induction medium (Lonza; DMEM, dexamethasone, ascorbate, insulin-transferrin-selenium [ITS supplement], gentamycin-amphotericin [GA-1000], sodium pyruvate, proline and L-glutamine) and treated with the compound of Formula (I) in DMSO or TGFβ3 (20 μg/mL) as a positive control. Cells were incubated at 37° C., 5% CO2 for either 7 or 21 days, with media changes every 5 days. The cells were fixed using 4% formaldehyde (Electron Microscopy Sciences), and stained with 2 μg/mL Rhodamine B (Sigma-Aldrich) and 20 μM Nile Red (Sigma-Aldrich) (Johnson et al. (2012) Science 336(6082):717-721). The nodules were imaged (25 images per well for 96 well plates at 10× magnification) by excitation at 531 nm and emission at 625 nm and quantified using the Celllnsight CX5 (Thermo Scientific). The number of nodules in each well was normalized to the average of 6 DMSO treated wells on the same plate using Excel (Microsoft Inc.). The normalized averages (fold change over DMSO) of 6 replicate wells for each compound concentration were calculated.

CC(C)CC(=O)Nc1cncc(-c2ccc3[nH]nc(-c4nc5c(-c6cccc(F)c6)cncc5[nH]4)c3c2)c1 [compound of Formula (I)]
concentration at 30 day ([1]; rat, bone, other: intra-articular injection, 1 μg/knee, Day 30, read-out: Formula (I) concentration, Bone): 196 ng/g | concentration at 90 day ([1]; rat, bone, other: intra-articular injection, 1 μg/knee, Day 90, read-out: Formula (I) concentration, Bone): 44.4 ng/g | concentration at 180 day ([1]; rat, bone, other: intra-articular injection, 1 μg/knee, Day 180, read-out: Formula (I) concentration, Bone): 46.4 ng/g | concentration at 30 day ([1]; rat, bone, other: intra-articular injection, 3 μg/knee, Day 30, read-out: Formula (I) concentration, Bone): 738 ng/g | concentration at 90 day ([1]; rat, bone, other: intra-articular injection, 3 μg/knee, Day 90, read-out: Formula (I) concentration, Bone): 166 ng/g | concentration at 180 day ([1]; rat, bone, other: intra-articular injection, 3 μg/knee, Day 180, read-out: Formula (I) concentration, Bone): 15 ng/g | concentration at 30 day ([1]; rat, bone, other: intra-articular injection, 9 μg/knee, Day 30, read-out: Formula (I) concentration, Bone): 3290 ng/g | concentration at 180 day ([1]; rat, bone, other: intra-articular injection, 9 μg/knee, Day 180, read-out: Formula (I) concentration, Bone): 67 ng/g | concentration at 30 day ([1]; rat, bone, other: intra-articular, 0.3 μg/knee, Day 30, read-out: Formula (I) concentration, Bone): 25.8 ng/g | concentration at 90 day ([1]; rat, bone, other: intra-articular, 0.3 μg/knee, Day 90, read-out: Formula (I) concentration, Bone): 6.56 ng/g | concentration at 180 day ([1]; rat, bone, other: intra-articular, 0.3 μg/knee, Day 180, read-out: Formula (I) concentration, Bone): 19 ng/g | concentration at 30 day ([1]; rat, cartilage, other: intra-articular injection, 0.3 μg/knee, Day 30, read-out: Formula (I) concentration, Cartilage): 263 ng/g | concentration at 90 day ([1]; rat, cartilage, other: intra-articular injection, 0.3 μg/knee, Day 90, read-out: Formula (I) concentration, Cartilage): 78 ng/g | concentration at 180 day ([1]; rat, cartilage, other: intra-articular injection, 0.3 μg/knee, Day 180, read-out: Formula (I) concentration, Cartilage): 69.6 ng/g | concentration at 30 day ([1]; rat, cartilage, other: intra-articular injection, 3 μg/knee, Day 30, read-out: Formula (I) concentration, Cartilage): 2570 ng/g | concentration at 90 day ([1]; rat, cartilage, other: intra-articular injection, 3 μg/knee, Day 90, read-out: Formula (I) concentration, Cartilage): 645 ng/g | concentration at 180 day ([1]; rat, cartilage, other: intra-articular injection, 3 μg/knee, Day 180, read-out: Formula (I) concentration, Cartilage): 717 ng/g | concentration at 30 day ([1]; rat, cartilage, other: intra-articular injection, 9 μg/knee, Day 30, read-out: Formula (I) concentration, Cartilage): 3560 ng/g | concentration at 180 day ([1]; rat, cartilage, other: intra-articular injection, 9 μg/knee, Day 180, read-out: Formula (I) concentration, Cartilage): 224 ng/g | concentration at 30 day ([1]; rat, cartilage, other: intra-articular, 1 μg/knee, Day 30, read-out: Formula (I) concentration, Cartilage): 39 ng/g | concentration at 90 day ([1]; rat, cartilage, other: intra-articular, 1 μg/knee, Day 90, read-out: Formula (I) concentration, Cartilage): 243 ng/g | concentration at 180 day ([1]; rat, cartilage, other: intra-articular, 1 μg/knee, Day 180, read-out: Formula (I) concentration, Cartilage): 201 ng/g | plasma level ([1]; rat, all time points): undetectable | time retained in the knee joint above the target concentration level (˜30 nM) ([1]; rat, single IA 0.3, 1, 3 and 9 μg/knee): greater than 180 days | Formula (I) concentration, Bone ([1]; 0.3 μg/knee, Day 30): [51 nM] | Formula (I) concentration, Cartilage ([1]; 0.3 μg/knee, Day 30): [521 nM] | Formula (I) concentration, Plasma ([1]; 0.3 μg/knee, Day 30): BQL | Formula (I) concentration, Bone ([1]; 0.3 μg/knee, Day 90): [13 nM] | Formula (I) concentration, Cartilage ([1]; 0.3 μg/knee, Day 90): [154 nM] | Formula (I) concentration, Plasma ([1]; 0.3 μg/knee, Day 90): BQL | Formula (I) concentration, Bone ([1]; 0.3 μg/knee, Day 180): [38 nM] | Formula (I) concentration, Cartilage ([1]; 0.3 μg/knee, Day 180): [138 nM] | Formula (I) concentration, Plasma ([1]; 0.3 μg/knee, Day 180): BQL | Formula (I) concentration, Bone ([1]; 1 μg/knee, Day 30): [388 nM] | Formula (I) concentration, Cartilage ([1]; 1 μg/knee, Day 30): [774 nM] | Formula (I) concentration, Plasma ([1]; 1 μg/knee, Day 30): BQL | Formula (I) concentration, Bone ([1]; 1 μg/knee, Day 90): [88 nM] | Formula (I) concentration, Cartilage ([1]; 1 μg/knee, Day 90): [481 nM] | Formula (I) concentration, Plasma ([1]; 1 μg/knee, Day 90): BQL | Formula (I) concentration, Bone ([1]; 1 μg/knee, Day 180): [92 nM] | Formula (I) concentration, Cartilage ([1]; 1 μg/knee, Day 180): [398 nM] | Formula (I) concentration, Plasma ([1]; 1 μg/knee, Day 180): BQL | Formula (I) concentration, Bone ([1]; 3 μg/knee, Day 30): [1461 nM] | Formula (I) concentration, Cartilage ([1]; 3 μg/knee, Day 30): [5097 nM] | Formula (I) concentration, Plasma ([1]; 3 μg/knee, Day 30): BQL | Formula (I) concentration, Bone ([1]; 3 μg/knee, Day 90): [329 nM] | Formula (I) concentration, Cartilage ([1]; 3 μg/knee, Day 90): [1277 nM] | Formula (I) concentration, Plasma ([1]; 3 μg/knee, Day 90): BQL | Formula (I) concentration, Bone ([1]; 3 μg/knee, Day 180): [313 nM] | Formula (I) concentration, Cartilage ([1]; 3 μg/knee, Day 180): [1420 nM] | Formula (I) concentration, Plasma ([1]; 3 μg/knee, Day 180): BQL | Formula (I) concentration, Bone ([1]; 9 μg/knee, Day 30): [6520 nM] | Formula (I) concentration, Cartilage ([1]; 9 μg/knee, Day 30): [7055 nM] | Formula (I) concentration, Plasma ([1]; 9 μg/knee, Day 30): BQL | Formula (I) concentration, Plasma ([1]; 9 μg/knee, Day 90): BQL | Formula (I) concentration, Bone ([1]; 9 μg/knee, Day 180): [1335 nM] | Formula (I) concentration, Cartilage ([1]; 9 μg/knee, Day 180): [4437 nM] | Formula (I) concentration, Plasma ([1]; 9 μg/knee, Day 180): BQL | chondrogenic gene expression ([2]; FIG. 18A): upregulated | osteogenic gene expression ([2]; FIG. 18B): downregulated | chondrocyte colonies/well (Human MSCs; 1.88 nM to 30 nM, FIG. 17): dose-dependent chondrogenesis | chondrogenesis (Nile Red and Rhodamine B staining) (Human MSCs; human MSCs, 7 or 21 days, fold change over DMSO, FIGS. 16A, 16B): dose dependent increase in chondrogenesis

Source: patent publication US10882860B2, “Treatment of osteoarthritis” (Samumed, LLC, priority 2015, dated 2021)
